Read-outs that look alike come from different tables or passages of the source.
Key:
[1] = molecular target: T1, chymotrypsin-like activity of the 26S proteasome (Homo sapiens, UniProt P28074); test: Proteasome assay, chymotrypsin-like (ChT-L) activity, Suc-LLVY-AMC, Jurkat cell lysate; assay type: biochemical; conditions: ± S.D.
T1 construct: endogenous in cells; host or cells: Jurkat (ATCC TIB-152, E6-1 clone) cell lysate
T1 sequence (P28074 60-263): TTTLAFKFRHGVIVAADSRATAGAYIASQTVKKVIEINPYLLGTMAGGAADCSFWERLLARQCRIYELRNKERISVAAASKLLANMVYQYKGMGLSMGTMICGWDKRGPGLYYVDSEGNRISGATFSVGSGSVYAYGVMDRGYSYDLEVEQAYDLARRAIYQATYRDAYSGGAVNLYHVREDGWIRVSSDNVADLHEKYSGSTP
Description: The lysate was stored at −80° C. until the sample was used for the proteasome assay.
(§1) The compounds were diluted with lysis buffer; 10 μL of the compound-containing solution was added to the test wells at ten times the final concentration. […] The results are reported as the average of at least 3 technical replicates of IC50 values for proteasome inhibition.

[2] = molecular target: T2, β5 subunit of the 26S yeast proteasome (yCP) (Saccharomyces cerevisiae, UniProt P23724+P30656); test: Protein-drug co-crystal structure; assay type: binding; conditions: X-ray crystallography
T2 construct: measured using 8 μg/mL of purified yCP or iCP
Description: The binding mode of compound 11a in the yeast proteasome was examined. The yeast proteasome (yCP) has high homology with mammalian proteasomes but is easier to crystallize. Compound 11a was incubated at a high concentration with active yCP, and the enzyme-inhibitor complex was analyzed using X-ray crystallography.
Compound 11a is positioned in a kinked β-sheet-like conformation that is stabilized by hydrogen bonding with Thr21 and Gly47. The PI is further stabilized by the hydrophobic interaction of P3, whereas P2 and P4 lack any direct interactions within the binding pocket. The PI prevents the regeneration of the Thr1 catalytic site by complexing the water molecule generated by the hydrolysis of the β-lactone. The water molecule is stabilized in the binding pocket by residues Thr1, Ser131, and the hydroxyl group of the hydrolyzed lactone. […] The biological effects of P2 and P4 can be attributed to the pharmacokinetics of the cystargolide scaffold instead of binding to the β5 subunit of the proteasome.

[3] = system: RPMI 8226 cells; test: MTT assay cytotoxicity RPMI 8226
Description: (§3) The cells were incubated at 37° C. in a humidified atmosphere with 5% CO2.
(§4) 100 μL of cells were added to each well of a 96 well microtiter plate at a concentration of 4×10^4 cells/mL and incubated overnight to allow proper adhesion. (RPMI 8226 cells were plated at 4×10^5 cells/mL). The cells were treated with the panel of test compounds at a series of concentrations, along with vehicle control DMSO and untreated cells as controls. After 48 h incubation, 20 μL of MTT reagent (3-(4,5-dimethylthiazol-2-yl)-2,5-diphenyltetrazolium bromide) in PBS (5 mg/mL) was added to each well of the plates. The plate was incubated for 2 h at 37° C. For adherent cell lines, the media was removed from each well of the plate and the resulting formazan crystals dissolved in 100 μL of DMSO. For RPMI 8226 cells, 200 ul of DMF/SDS mix (50% DMF. 10% w/v SDS pH<4) was used to solubilize the formazan crystals. Optical density (OD) at 490 nm was measured using a microplate reader. Cells treated with 1 μM phenyl arsine oxide (PAO) served as a positive cell-killing control. Technical replicates of these assays were performed in biological quadruplicate, and the three best values were used for analysis in order to eliminate outliers. Data presented are the average IC50 value calculated from at least 3 technical replicates with the corresponding standard deviation.

[4] = molecular target: T3, yeast proteasome yβ5 subunit (Saccharomyces cerevisiae, UniProt P23724+P30656); test: Subunit selectivity, purified yeast proteasome yβ5; assay type: biochemical; conditions: 8 μg/mL purified yCP; ± SD; read-out: yβ5 IC50
T3 construct: measured using 8 μg/mL of purified yCP or iCP
Description: as §1
(§2) Values and standard deviations were calculated from an assay performed in biological triplicate.

[5] = molecular target: T4, yeast proteasome yβ1 subunit (Saccharomyces cerevisiae, UniProt P25043+P38624); test: Subunit selectivity, purified yeast proteasome yβ1; assay type: biochemical; conditions: 8 μg/mL purified yCP; ± SD; read-out: yβ1 IC50
T4 construct: measured using 8 μg/mL of purified yCP or iCP
Description: as §1, §2

[6] = system: MCF7 cells; test: MTT assay cytotoxicity MCF7
Description: as §3, §4

[7] = molecular target: T5, yeast proteasome yβ2 subunit (Saccharomyces cerevisiae, UniProt P25043+P25451); test: Subunit selectivity, purified yeast proteasome yβ2; assay type: biochemical; conditions: 8 μg/mL purified yCP; ± SD; read-out: yβ2 IC50
T5 construct: measured using 8 μg/mL of purified yCP or iCP
Description: as §1, §2

[8] = molecular target: T6, immunoproteasome iβ5 subunit (Homo sapiens, UniProt P20618+P28062); test: Subunit selectivity, purified immunoproteasome iβ5; assay type: biochemical; conditions: 8 μg/mL purified iCP; ± SD; read-out: iβ5 IC50
T6 construct: purchased Enzo Life Sciences
Description: as §1, §2

[9] = system: MDA-MB-231 cells; test: MTT assay cytotoxicity MDA-MB-231
[10] = system: MCF-7 breast cancer cell line; test: Drug deactivation by serum: cytotoxicity towards MCF-7 in FBS, NBS or human serum; assay type: cell-based; conditions: MCF-7 cytotoxicity
Description: The deactivation of compounds was evaluated by testing the toxicity of compounds 8 and 12a in three different types of serums (i.e., fetal bovine serum (FBS), newborn bovine serum (NBS), and human serum). FBS is taken during the development of a calf fetus, so the serum has less protein associated with the innate immune system, and less protein altogether compared to NBS and human serum. […] The structural optimization of compound 12a improved the serum stability of the drug: P3 was changed from isopropyl to CH2OBn, and P4 was changed from OBn to NHBn. The OBn group of P4 was more sensitive to deactivation than NHBn.
The MCF-7 cells were cultured in three different types of serum. Assays were performed in biological triplicate, and the data points are reported with the corresponding standard deviation.

[11] = system: cancer cells (MCF7, MDA-MB-231, RPMI 8226); test: MTT cytotoxicity, cell line not given

IC50 ([1]; Table 5, read-out: Proteasome Inhib. ChT-L IC50) [nM]	Compound	IC50 ([1]; Table 4, P4 analogues, read-out: Proteasome Inhibition ChT-like IC50) [nM]	binding mode in the crystal structure [2]	IC50 ([3]; read-out: Cytotoxicity RPMI 8226 IC50, Table 4, MTT, 48 h) [nM]	IC50 [4] [nM]	IC50 [5] [nM]	IC50 ([6]; read-out: Cytotoxicity MCF7 IC50, Table 4, MTT, 48 h) [nM]	IC50 [7] [nM]	IC50 [8] [nM]	IC50 ([9]; read-out: Cytotoxicity MDA-MB-231 IC50, Table 4, MTT, 48 h) [nM]	IC50 ([3]; Homo sapiens, RPMI-8226, read-out: Cytotoxicity RPMI 8226 IC50) [nM]	fold decrease in activity with NBS or human serum instead of FBS [10] [fold]	IC50 ([6]; Homo sapiens, MCF7, read-out: Cytotoxicity MCF7 IC50) [nM]	times less cytotoxic than carfilzomib [11]	IC50 ([9]; Homo sapiens, MDA-MB-231, read-out: Cytotoxicity MDA-MB-231 IC50) [nM]
	C=CCOC(=O)[C@@H](NC(=O)[C@@H](NC(=O)[C@@H]1OC(=O)[C@H]1[C@@H](C)CC)C(C)C)C(C)C [Compound 11a, Allyl((2R,3S)-3-((S)-sec-butyl)-4-oxooxetane-2-carbonyl)-L-valyl-L-valinate]	11.6 ± 2.8	binds covalently to Thr1Oγ at the active site of subunit β5 of the yCP	94 ± 15	19.5 ± 0.8	779 ± 42	311 ± 82	> 10000	41.2 ± 15.2	275 ± 112					
0.647 ± 0.021	CC[C@H](C)[C@@H]1C(=O)O[C@H]1C(=O)N[C@H](C(=O)N[C@@H](COCc1ccccc1)C(=O)NCc1ccccc1)C(C)C [Compound 12a]				8.2 ± 1.4	20400 ± 12900		13600 ± 5490	33 ± 13.4		28.8 ± 1.09	< 10	93.9 ± 2.94	about 10 times	56.3 ± 3.09

— US11396497B2, “Proteasome inhibitors” (New Mexico Tech University Research Park Corporation, priority 2018, dated 2022)
